Molecular target: Prostaglandin G/H synthase 1 (Homo sapiens, UniProt P23219)
Sequence (P23219 whole entry): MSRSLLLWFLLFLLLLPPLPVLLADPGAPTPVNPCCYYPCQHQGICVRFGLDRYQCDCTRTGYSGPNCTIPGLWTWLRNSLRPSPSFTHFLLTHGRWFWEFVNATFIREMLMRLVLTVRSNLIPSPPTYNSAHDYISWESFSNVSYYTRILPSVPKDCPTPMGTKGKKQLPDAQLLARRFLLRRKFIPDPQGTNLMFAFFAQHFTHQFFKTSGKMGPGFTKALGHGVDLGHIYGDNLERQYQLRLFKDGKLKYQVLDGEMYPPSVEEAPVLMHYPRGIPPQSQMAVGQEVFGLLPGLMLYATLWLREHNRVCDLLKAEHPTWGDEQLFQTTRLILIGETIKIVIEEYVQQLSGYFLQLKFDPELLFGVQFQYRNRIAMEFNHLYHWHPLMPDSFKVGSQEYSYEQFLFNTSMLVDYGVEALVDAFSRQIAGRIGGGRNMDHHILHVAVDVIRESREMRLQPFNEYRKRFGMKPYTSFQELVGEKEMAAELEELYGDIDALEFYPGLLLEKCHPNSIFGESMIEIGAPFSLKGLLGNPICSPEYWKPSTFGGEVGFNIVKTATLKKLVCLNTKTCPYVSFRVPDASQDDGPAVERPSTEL

Ki: > 10 µM
SMILES: Cc1ccc(-c2ncc(Cl)cc2-c2ccc(S(C)(=O)=O)cc2)cn1
